Where two headings read alike, the source gives them in different places.

The term AUC(0-inf) denotes total exposure, with the tail of the curve extrapolated. For orientation: AUC(0-t) means exposure summed from dosing to a finite time, without extrapolation to infinity. For orientation: Cmax means the maximum level reached in the sampled fluid or tissue. As a reminder, the Tmax is the time from dosing to the highest level. By half-life is commonly meant the time needed for the level to fall by half in the phase considered.

The nature of data set [1]: Monkey pharmacokinetic studies. The format is in vivo, male Non-Naïve Cynomolgus Monkeys. More on the design: AUClast/D: unit not given here. To be noted: PO 0.3 mg/kg; for AUC(0-inf) / AUC(0-t) / Cmax / Tmax / half-life / MRT inf: male, cynomolgus monkey; for MRT inf: read-out: MRTInf—obs. The method, then: The rat pharmacokinetics studies of exemplary compounds 03-3, 03-5, and 03-115 were conducted with male SD rats. These rats were typically about 6-8 weeks old, weighing 200 g to 300 g. Animals were fasted overnight and free access to food 4 hours after dosing. A required volume of vehicle was added to reach the target concentration of the test article and vehicle component to prepare for the dosing. The dosing vehicle was PEG400 or 30% PEG400 in saline for IV, or 0.5% methylcellulose in water for PO. For IV dosing, the animals were administered intravenously via tail vein. For PO dosing, the animals were administered via oral gavage. After dosing, blood sample was collected (˜0.2 mL per time point) through jugular vein or heart puncture. Blood of each sample was transferred into plastic micro centrifuge tubes containing EDTA-K2. Collection tubes with blood samples and anticoagulant were inverted several times for proper mixing of the tube contents and then placed on wet ice. The blood samples were centrifuged at 2000 g for 5 minutes at 4° C. to obtain plasma which was stored in a freezer at −75±15° C. prior to analysis. Samples were analyzed using LC-MS/MS. WinNonlin were used for pharmacokinetic calculations.
Monkey pharmacokinetics studies of exemplary compounds 03-3, 03-5, and 03-115 were conducted substantially similarly to the rat pharmacokinetic studies, instead using male Non-Naïve Cynomolgus Monkeys. Animals for PO studies were food fasted overnight prior to dosing and were fed approximately 2 hours after dosing. Animals for IV studies had free access to food and water. Blood samples were collected through venipuncture of peripheral veins except the dosing vein.

Data set [2] concerns the target β2 adrenergic receptors in human astrocytoma cells (1321N1) (Homo sapiens (Human), UniProt P07550). In words: cAMP HTRF assay in human astrocytoma cells (1321N1). The format is cell-based. To be noted: Endogenous receptor, 1321N1 cells. An outline of the steps: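 Intracellular cAMP quantified by Eu-donor/d2-acceptor HTRF after 30 min compound exposure at 37° C in stimulation buffer with IBMX. Concentrations ran 10 μM top, 5-fold steps, 10 points. Cell lines: 1321N1 astrocytoma and CHO expressing β1 or β2; EC50 via four-parameter fit, relative efficacy against isoproterenol.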
On the technique in general: Time-resolved FRET reads energy transfer from a long-lived donor to a nearby acceptor.

β2 adrenergic receptors in human astrocytoma cells (1321N1), sequence (P07550 whole entry): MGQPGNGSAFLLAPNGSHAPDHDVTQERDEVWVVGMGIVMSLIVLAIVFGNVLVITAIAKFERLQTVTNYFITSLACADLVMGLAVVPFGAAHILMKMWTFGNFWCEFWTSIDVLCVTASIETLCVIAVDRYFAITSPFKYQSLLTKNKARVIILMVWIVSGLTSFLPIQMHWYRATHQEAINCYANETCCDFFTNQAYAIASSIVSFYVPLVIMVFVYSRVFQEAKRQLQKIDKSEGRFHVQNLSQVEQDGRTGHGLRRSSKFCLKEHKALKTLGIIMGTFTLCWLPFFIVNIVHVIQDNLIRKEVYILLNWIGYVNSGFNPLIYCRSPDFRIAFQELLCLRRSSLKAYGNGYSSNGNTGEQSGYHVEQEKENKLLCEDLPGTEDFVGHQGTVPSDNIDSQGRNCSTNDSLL

Regarding `CC(C)(C)NC[C@H](O)c1cccc(C#N)n1` [Compound 03-5, (S)-6-(2-(tert-butylamino)-1-hydroxyethyl)picolinonitrile], in data set [1], the AUClast/D came to 1144, the “AUC—% Extrap—obs” value was 2.13% and the F was determined as 88.3%. For the same compound, in data set [1] (plasma), the total exposure AUC(0-inf) was found to be 351 ng·h/mL, the AUC(0-t) amounted to 343 ng·h/mL, the peak level (Cmax) was 66.2 ng/mL and the Tmax stood at 1 h. Also, in data set [1] (plasma), the half-life is 272 min and the MRT inf is 5.11 h. Besides, in data set [2], the “Average pEC50 [Receptor subtype: Endogenous; Cell type: 1321N1]” value was “C-B”. Moreover, in data set [2] (read-out: Average EC50 [Receptor subtype: Endogenous, Cell type: 1321N1]), the EC50 is 10 to 100 nM.
On to `CC(C)(C)NC[C@H](O)c1cccc(C(F)(F)F)n1` [Compound 03-3], for which, in data set [1], the AUClast/D turned out to be 761, the “AUC—% Extrap—obs” value came to 1.87% and the F came out at 44.6%. Also, in data set [1] (plasma), the AUC(0-inf) was found to be 232 ng·h/mL, the AUC(0-t) turned out to be 228 ng·h/mL, the maximum concentration (Cmax) was found to be 46.6 ng/mL and the Tmax amounted to 1 h. Further, in data set [1] (plasma), the half-life was 259 min and the MRT inf turned out to be 4.99 h.
In data set [1], `Cc1ncccc1[C@@H](O)CNC(C)(C)C` [Compound 03-115] displayed an F of 71%. For the same compound, in data set [1] (in vivo), the AUC(0-inf) is 261 ng·h/mL, the highest concentration (Cmax) worked out at 67 ng/mL, the Tmax was 1.17 h and the MRT inf was found to be 3.46 h. Further, the EC50 in data set [2] (read-out: Average pEC50 [Receptor subtype: Endogenous, Cell type: 1321N1] (converted)) is 100 to 1000 nM.

The values above are taken from US10947196B2, “Beta adrenergic agonist and methods of using the same” (CURASEN THERAPEUTICS, INC., priority 2019, dated 2021).
